Data as given in the OligoGym collection.
These antisense oligonucleotides have a phosphorothioate backbone; sugars and methylation of C are not fully specified.

Target: IL11
Conditions: ASO
Further: test concentration or dose not given here.

Sequence TTGGACGGACGGCCGTGGAG has a remaining target (mRNA or protein) (fraction of control) of 0.75.

Target: ABCC1
Conditions: ASO

In order of falling remaining target (mRNA or protein) (fraction of control):
1. CAGGAGGTCCGATGGGGCGC  0.95
2. AGGCCCTGCAGTTCTGACCA  0.95
3. CGGGGCCGCAACGCCGCCTG  0.95
4. TCGGAGCCATCGGCGCTGCA  0.8
5. GGCACCCACACGAGGACCGT  0.79
6. GCTCACACCAAGCCGGCGTC  0.78
7. CGCATCTCTGTCTCTCCTGG  0.77
8. CTCCTCCCTGGGCGCTGGCA  0.74
9. AGCCCCGGAGCGCCATGCCG  0.74
10. ACCGGATGGCGGTGGCTGCT  0.73
11. GCGGCGATGGGCGTGGCCAG  0.73
12. CCGGTGGCGCGGGCGGCGGC  0.69
13. GGTGATCGGGCCCGGTTGCT  0.68
14. CGCGCTGCTTCTGGCCCCCA  0.56
15. TGCTGTTCGTGCCCCCGCCG  0.51

Target: IGF2
Conditions: ASO

Going from AGCCCCAGCGACCCCAGCGT to TCACCATGGCCAGCCCCAGC, the remaining target (mRNA or protein) (fraction of control) falls from at least 1 to 0.81.

Compared with CGATCTTGTGCGGTGTCCTG, CTCTTCTGCCCTGTTTTGTC is lower in remaining target (mRNA or protein) (fraction of control): 0.86 for the first, 0.31 for the second.

First: TAAATAAGGACCAGCTCCCA
Second: ACCGCGCTTTCCTCCCGCCG
The remaining target (mRNA or protein) (fraction of control) of the first is lower: 0.41 for the first, 0.53 for the second.

Going from TACAAGATAGTACAGTACGC to CCCACCTCCATCACCATGGC, the remaining target (mRNA or protein) (fraction of control) rises from 0.33 to 0.52.

Going from GTGAAGGCAGACCACCGACC to GGAACTCAGTGGAACTCAGG, the remaining target (mRNA or protein) (fraction of control) falls from 0.27 to 0.11.

Sequence CGCGCATGTCATCGGGAATG has a remaining target (mRNA or protein) (fraction of control) of 0.31.

Target: Agtr1a (rat)
Conditions: ASO

In order of rising remaining target (mRNA or protein) (fraction of control):
1. GGGAGCGTCGAATTCCGAGA  0.21
2. TGGTGATGGGCATGGCAGTG  0.21
3. GTCGAATTCCGAGACTCATA  0.25
4. GGCGTAGAGGTTGAAGCTCA  0.27
5. AGCGTCGAATTCCGAGACTC  0.29
6. GTGATGGGCATGGCAGTGTC  0.29
7. AACAGAGGGTTCAGGCAGTT  0.29
8. GGGTTCAGGCAGTTGTTAAA  0.29
9. AGAGGGTTCAGGCAGTTGTT  0.3
10. GCAGAAGAGTTAAGGGCCAT  0.32
11. GATGGTGATGGGCATGGCAG  0.32
12. GCGGTCGATGCTGAGACACG  0.35
13. TAAAGGGTATAGCTGGTGAGA  0.35
14. CAGCAGAAGAGTTAAGGGCC  0.37
15. GGATGCGGTCGATGCTGAGA  0.39
16. AAGGGTATAGCTGGTGAGAAT  0.39
17. CTGGCGTAGAGGTTGAAGCT  0.41
18. ATAGCTGGTGAGAATGATAAG  0.44
19. AGAAGAGTTAAGGGCCATTT  0.46
20. GGTATAGCTGGTGAGAATGAT  0.46
21. GGTCGATGCTGAGACACGTG  0.49
22. AGACACGTGTGAAGGAACAC  0.5
23. ACACGTGTGAAGGAACACAC  0.51
24. ATGCGGTCGATGCTGAGACA  0.75
25. TTCAGGCAGTTGTTAAAATA  0.86

Target: PRKCA
Conditions: ASO

Compared with GCAGAGGCTGGGGACATTGA, AAGAGAGAGACCCTGAACAG is lower in remaining target (mRNA or protein) (fraction of control): 0.81 for the first, 0.62 for the second.

Compared with CCCGGGAAAACGTCAGCCAT, CACTGCGGGGAGGGCTGGGG is higher in remaining target (mRNA or protein) (fraction of control): 0.52 for the first, at least 1 for the second.

First: CGCCGTGGAGTCGTTGCCCG
Second: AGCCGTGGCCTTAAAATTTT
The remaining target (mRNA or protein) (fraction of control) of the first is lower: 0.54 for the first, 0.84 for the second.

Going from GGATTCACTTCCACTGCGGG to GAGACCCTGAACAGTTGATC, the remaining target (mRNA or protein) (fraction of control) falls from 0.82 to 0.61.

First: AGTCGGTGCAGTGGCTGGAG
Second: CTGCCTCAGCGCCCCTTTGC
The remaining target (mRNA or protein) (fraction of control) of the first is higher: 0.88 for the first, 0.47 for the second.

Going from GGGCTGGGGAGGTGTTTGTT to CCCCAACCACCTCTTGCTCC, the remaining target (mRNA or protein) (fraction of control) falls from 0.95 to 0.39.

Compared with GTTCTCGCTGGTGAGTTTCA, GTCAGCCATGGTCCCCCCCC is lower in remaining target (mRNA or protein) (fraction of control): 0.52 for the first, 0.46 for the second.

Compared with AAAACGTCAGCCATGGTCCC, ATGGGGTGCACAAACTGGGG is higher in remaining target (mRNA or protein) (fraction of control): 0.39 for the first, 0.94 for the second.

Compared with GATAATGTTCTTGGTTGTAA, TCAAATGGAGGCTGCCCGGC is lower in remaining target (mRNA or protein) (fraction of control): 0.85 for the first, 0.66 for the second.

Going from ATTTTCAGGCCTCCATATGG to TGGAATCAGACACAAGCCGT, the remaining target (mRNA or protein) (fraction of control) rises from 0.82 to 0.89.

Target: RAF1
Conditions: ASO

Going from CTCGCCCGCTCCTCCTCCCC to TTAAAATAACATAATTGAGG, the remaining target (mRNA or protein) (fraction of control) falls from at least 1 to 0.93.

First: TGTAGCCAACAGCTGGGGCT
Second: CTGGCTTCTCCTCCTCCCCT
The remaining target (mRNA or protein) (fraction of control) of the first is higher: 0.96 for the first, 0.95 for the second.

Going from TTGTCAGGTGCAATAAAAAC to CTGATTTCCAAAATCCCATG, the remaining target (mRNA or protein) (fraction of control) falls from 0.88 to 0.26.

Compared with CAAGAAAACCTGTATTCCTG, GATGCAGCTTAAACAATTCT is lower in remaining target (mRNA or protein) (fraction of control): at least 1 for the first, 0.99 for the second.

Going from TCCTCCTCCCCGCGGCGGGT to GCTCCATTGATGCAGCTTGA, the remaining target (mRNA or protein) (fraction of control) falls from 0.95 to 0.63.

First: GTCTGGCGCTGCACCACTCT
Second: GCCGAGTGCCTTGCCTGGAA
The remaining target (mRNA or protein) (fraction of control) of the first is lower: 0.35 for the first, 0.98 for the second.

First: GCTCCTGGAAGACAAAATTC
Second: GCCGCCCCAACGTCCTGTCG
The remaining target (mRNA or protein) (fraction of control) of the first is higher: 0.82 for the first, 0.42 for the second.

Going from CAGCACTGCAAATGGCTTCC to TCTGGCGCTGCACCACTCTC, the remaining target (mRNA or protein) (fraction of control) falls from 0.8 to 0.25.

Going from TGTGACTAGAGAAACAAGGC to TCAGGGCTGGACTGCCTGCT, the remaining target (mRNA or protein) (fraction of control) falls from 0.68 to 0.52.

First: ACCATCAACATCCACTTGCG
Second: CCCTGTATGTGCTCCATTGA
The remaining target (mRNA or protein) (fraction of control) of the first is higher: at least 1 for the first, 0.38 for the second.

First: TTGAGCATGGGGAATGTGGG
Second: CGCTCCTCCTCCCCGCGGCG
The remaining target (mRNA or protein) (fraction of control) of the first is higher: 0.63 for the first, 0.35 for the second.

Sequence CCTGCTGGCTTCTCCTCCTC has a remaining target (mRNA or protein) (fraction of control) of 0.92.

Target: ABCB1
Conditions: ASO

In order of falling remaining target (mRNA or protein) (fraction of control):
1. ACTTTTATTGTTCAGTTTAAA  0.97
2. TTTTATTGTTCAGTTTAAAAA  0.92
3. AAAAGTTCTTCTTTGCTGCT  0.92
4. TCCGACTTTAGTGGAAAGAC  0.9
5. TGACAGTTGGTTTCTTTCC  0.85
6. TACTCCGACTTTAGTGGAAA  0.84
7. ACTGACAGTTGGTTTCTTT  0.84
8. AGTTCTTCTTTGCTGCTCCA  0.7
9. TCTTCTTTGCTCCTCCATTG  0.67
10. ATACTGACAGTTGGTTTCT  0.65
11. GAGCTTGGAAGAGCCGCTACT  0.54
12. TTGAGCTTGGAAGAGCCGCTA  0.54
13. TCCCCTTCAAGATCCATCCC  0.2
14. CGTCCTTGGAACGGCCACCA  0.18
15. GACCTCGCGCTCCTTGGAAC  0.17
16. CGCGTCCTTGGAACGGCCAC  0.15
17. CCCGACCTCGCGCTCCTTGG  0.15
18. TTGCGGTCCCCTTCAAGATC  0.09
19. CGGTCCCCTTCAAGATCCAT  0
20. CATCCCGACCTCGCGCTCCT  0
